According to article PMC10535741, “Styrylpyridinium Derivatives for Fluorescent Cell Imaging” (Pharmaceuticals, 2023):
Values joined by “and” are separate entries in the source; they are usually repeats but may differ in a detail not shown here. Equal entries are not always repeated. Where two headings read alike, the source gives them in different places.

Tests used:
[1] = test system: HT-1080 (human connective tissue fibrosarcoma); assay: MTT cytotoxicity assay, HT-1080; format: cell-based; settings: for IC50: Homo sapiens, read-out: IC50 (µg/mL) HT-1080
Protocol: The evaluation of the in vitro cytotoxicity (IC50, half maximal inhibitory concentration) of the abovementioned compounds and their structural derivatives was assessed using the standard colorimetric 3-(4,5-dimethylthiazol-2-yl)-2,5-diphenyltetrazolium bromide (MTT) assay on two monolayer tumour cell lines, namely HT-1080 (human connective tissue fibrosarcoma) and MH-22A (mouse hepatocarcinoma). Additionally, the impact of the compound on non-cancerous “normal” cells—mouse fibroblasts (NIH3T3)—was estimated in order to measure the basal toxicity (LD50, median lethal dose). The obtained results were used for investigation of the structure–activity relationships and exploration of the effect of substituents on cellular response and toxicity. The estimated LD50 gives information regarding the compound properties and could potentially be used to select promising compounds by providing a starting dose for in vivo experiments.
The HT-1080 (human connective tissue fibrosarcoma, ATCC® CCL-121™), MH-22A (mouse hepatocarcinoma, ECACC Cat. No. 96121721), A-549 (human lung carcinoma, ATCC® CCL-185™), NIH3T3 (Swiss Albino mouse embryo fibroblast, ECACC Cat. No. 93061524), Hek293 (human embryonic kidney, ATCC® CRL-1573™), BHK-21 (Syrian hamster kidney, ATCC® CCL-10™), A-431 (human epidermoid carcinoma, ATCC® CRL-1555™), Saos-2 (human osteosarcoma, ATCC® HTB-85™), HeLa (human epitheloid cervix carcinoma, ATCC® CCL-2™), U937 (human myeloid leukaemia, ATCC® CRL-1593.2™), C6 (rat glioma, ATCC® CCL-107™), and B16-F10 (murine melanoma, ATCC® CRL-6475™) cell lines were obtained from the American Type Culture Collection (ATCC) and European Collection of Authenticated Cell Cultures (ECACC).
HT-1080, MH-22A, A-549, NIH3T3, BHK-21, A-431, HeLa, and B16-F10 cells were cultured in Dulbecco’s Modified Eagle’s Medium (DMEM) with 2 mM glutamine and 10% foetal bovine serum (FBS). Hek293 cells were cultured in Eagle’s Minimum Essential Medium with 10% foetal bovine serum. U937 cells were cultured in RPMI-1640 Medium with 2 mM glutamine and 10% foetal bovine serum. C6 cells were cultured in Ham’s F12 Medium with 2 mM glutamine and 10% foetal bovine serum. Saos-2 cells were cultured in McCoy’s 5a Medium with 2 mM glutamine and 10% foetal bovine serum. The cells were incubated at 37 °C with 5% CO2, 95% air, and complete humidity. Once ~90% confluence was reached, they were detached using 0.05% trypsin/EDTA and counted. The cells were plated at optimally determined densities for the logarithmic phase of growth. These cells were then suspended at a concentration of 4000 cells/well for HT-1080, MH-22A, A-549, NIH3T3, BHK-21, A-431, HeLa, B16-F10, Hek293, and Saos-2 cells and a concentration of 9000 cells/well for U937, C6, Hek293, and GM08402 cells and added onto a 96-well plate. For background absorption, some wells remained cell free, i.e., as a blank control. Cells were incubated for 72 h at 37 °C and 5% CO2 where they were exposed to a media containing serial dilutions of the investigated compounds (n = 3). Cell viability was measured using the 3-(4,5-dimethylthiazol-2-yl)-2,5-diphenyl-tetrazolium bromide (MTT) assay. In brief, after incubating with compounds, the culture medium was removed and fresh medium with 0.2 mg/mL MTT was added to each well of the plate. After incubation (3 h, 37 °C, 5% CO2), the medium with MTT solution was removed and replaced with 200 µL DMSO and 25 µL Sorenson’s glycine buffer (glycine 0.1 M, NaCl 0.1 M, pH: 10.5 with 0.1 M NaOH). The plate was shaken for 15 min at room temperature and the optical density (OD) of the wells was determined using a multichannel spectrophotometer (Thermo Scientific Multiskan EX) at 540 nm. The quantity of the control cells was taken in calculations as 100%. The IC50 value was calculated using the program Graph Pad Prism® 3.0.

[2] = Excitation/emission fluorescence spectra; format: physicochemical; settings: for fluor. max. λ, nm / excitation λ, nm: DMSO solution; for excitation λ, nm: excitation giving maximum fluorescence intensity; for Stokes' shift, nm: DMSO
Protocol: The resonance structures of compounds 6d,e (Figure 2a) show a possibly intramolecular charge transfer between the julolidine moiety and the pyridinium unit. The normalised fluorescence spectra of the tested compounds 6a–e and 7a,b in DMSO solution (Figure 2c) and the fluorescence spectra of compound 6e in various media (Figure 2d) were measured using a spectrophotometer multiplate reader (Infinite M1000). The UV/Vis spectra in DMSO solution of compounds 6a–g (Figure 2b) were reordered with a UV/Vis spectrophotometer, and the fluorescence spectra of compound 6e in EtOH–glycerol mixtures (Figure 2e) were collected with a Spectrofluorometer FS5.
According to the calculations, the excitation occurs at 542 nm and the emission at 765 nm. The obtained theoretical calculation data are in good agreement with the experimental data, where the excitation occurs at 530 nm and the emission at 760 nm (Table 3).
We have also tested whether the characteristics of compound 6e depended upon the viscosity of its surrounding environment. […] It was underlined that water media reduced the fluorescence quantum yields and the lifetime of organic fluorophores by up to threefold. […] In pure glycerol, the maximum value of fluorescence was detected at 645 nm. As the amount of glycerol decreased, the fluorescence intensity of the sample decreased as well. The second fluorescence maximum at 720 nm was observed when the amount of ethanol had reached approximately 50% in the composition.
A concentration of 10 mM stock solution of compounds 6 or 7 was prepared by dissolving the compounds in DMSO. Working solutions were prepared by diluting the 10 mM stock solution of compounds with different solvents to reach the final concentration for the samples: DMSO (compound concentration 0.1 mM); for compound 6e: in glycerol (concentration 0.01 mM), in water (concentration 0.5 mM), in 0.1 M HCl (concentration 0.5 mM), in 0.1 M NaOH (concentration 0.5 mM), or in 1% DMSO/99% water (concentration […]). The fluorescence spectra were measured using a spectrophotometer multiplate reader (Tecan Infinite M1000; Tecan Austria GmbH, Salzburg, Austria). For excitation/emission fluorescence spectra measurements, the following measurement parameters were applied: excitation wavelength from 260 nm to 690 nm with a 10 nm sampling interval and emission wavelength from 300 nm to 840 nm with a 10 nm sampling interval. The fluorescence spectra of compound 6e (concentration 5 mM) in EtOH–glycerol mixtures were measured with an Edinburgh Instruments FS5 Spectrofluorometer (Edinburgh Instruments Ltd., Kirkton Campus, UK). The data were analysed using Microsoft Excel software version 2308.

SMILES: CCCCCCCCCCCC[n+]1ccc(C=Cc2cc(OC)c(OC)c(OC)c2)cc1.[Br-] [Compound 6a, 4-(3,4,5-trimethoxystyryl)-N-dodecylpyridinium bromide]
- IC50 ([1]; HT-1080, 72 h treatment, MTT): 0.22 ± 0.06 µg/mL
- fluor. max. λ, nm [2]: 580 nm
- excitation λ, nm [2]: 380 nm

SMILES: CCCCCCCCCCCCCCCC[n+]1ccc(C=Cc2cc(OC)c(OC)c(OC)c2)cc1.[Br-] [Compound 6b]
- IC50 (µg/mL) HT-1080 ([1]; 72 h treatment, MTT): 0.18 ± 0.02 µg/mL
- fluor. max. λ, nm [2]: 580 nm
- excitation λ, nm [2]: 380 nm

SMILES: CCCCCCCCCCCCCCCC[n+]1ccc(C=CC=Cc2ccc(OC)cc2)cc1.[Br-] [Compound 6c, 1-hexadecyl-4-(4-(4-methoxyphenyl)buta-1,3-dien-1-yl)pyridin-1-ium bromide]
- IC50 ([1]; HT-1080, 72 h treatment, MTT): 0.2 ± 0.04 µg/mL
- Stokes' shift, nm [2]: 352 nm
- fluor. max. λ, nm [2]: 760 nm and ~ 760 nm
- excitation λ, nm [2]: 530 nm

SMILES: CCCCCCCCCCCC[n+]1ccc(C=Cc2cc3c4c(c2)CCCN4CCC3)cc1.[Br-] [Compound 6d, 1-dodecyl-4-(2-(2,3,6,7-tetrahydro-1H,5H-pyrido[3,2,1-ij]quinolin-9-yl)vinyl)pyridin-1-ium bromide]
- IC50 ([1]; HT-1080, 72 h treatment, MTT): 1.4 ± 0.3 µg/mL
- fluor. max. λ, nm [2]: 660 nm
- excitation λ, nm [2]: 530 nm

SMILES: CCCCCCCCCCCCCCCC[n+]1ccc(C=CC=Cc2cc3c4c(c2)CCCN4CCC3)cc1.[Br-] [Compound 6e, 1-hexadecyl-4-(4-(2,3,6,7-tetrahydro-1H,5H-pyrido[3,2,1-ij]quinolin-9-yl)buta-1,3-dien-1-yl)pyridin-1-ium bromide]
- times higher cytotoxicity towards HT-1080 than 6d ([1]; 6e versus 6d): 1.4 times
- IC50 ([1]; HT-1080, 72 h treatment, MTT): 1 ± 0.03 µg/mL
- Stokes' shift, nm [2]: 240 nm
- fluor. max. λ, nm [2]: 760 nm and ~ 760 nm
- excitation λ, nm [2]: 530 nm
- second fluorescence maximum ([2]; EtOH-glycerol mixture, ethanol approximately 50%): 720 nm
- fluorescence emission maximum wavelength ([2]; pure glycerol): 645 nm

SMILES: C(=C\c1cc2c3c(c1)CCCN3CCC2)/c1cc[n+](CCC[n+]2ccc(/C=C/c3cc4c5c(c3)CCCN5CCC4)cc2)cc1 [Compound 7a]
- IC50 ([1]; HT-1080, 72 h): 2 ± 0.3 µg/mL
- fluor. max. λ, nm [2]: 660 nm
- excitation λ, nm [2]: 530 nm

SMILES: C(C=Cc1cc2c3c(c1)CCCN3CCC2)=Cc1cc[n+](CCC[n+]2ccc(C=CC=Cc3cc4c5c(c3)CCCN5CCC4)cc2)cc1.[Br-].[Br-] [Compound 7b, 1,1′-(propane-1,3-diyl)bis(4-(4-(2,3,6,7-tetrahydro-1H,5H-pyrido[3,2,1-ij]quinolin-9-yl)buta-1,3-dien-1-yl)pyridin-1-ium) dibromide]
- IC50 ([1]; HT-1080, 72 h treatment, MTT): 6 ± 0.2 µg/mL
- fluor. max. λ, nm [2]: 770 nm and ~ 760 nm
- excitation λ, nm [2]: 530 nm
